Where two headings read alike, the source gives them in different places. Starred links: 1 amine or outer side, 2 acyl side, 3 side chain; linkers in the order of their positions; H or OH if unused. Non-standard residues stand in square brackets, D forms with d. Groups on a side chain read outwards from the residue. *: point of attachment. C20 diacid = O=C(O)CCCCCCCCCCCCCCCCCCC(=O)*; γGlu = O=C(O)[C@H](CCC(=O)[*:2])N[*:1]; εLys = N[C@@H](CCCCN[*:1])C(=O)[*:2]; hArg = N=C(N)NCCCC[C@H](N)C(=O)O; Aib = CC(C)(N)C(=O)O
How the values were obtained:
Assay type in all cases: cell-based
Conditions in all cases: CreLuc reporter gene assay
[1] = molecular target: T1, hGLP1R (Homo sapiens, UniProt P43220); test: hGLP1R CreLuc reporter gene assay in 0.5% and 100% plasma
T1 construct: expressed in transfected cells; host or cells: HEK-293 cells carrying a CRE-luciferase reporter gene
T1 sequence (P43220 24-463): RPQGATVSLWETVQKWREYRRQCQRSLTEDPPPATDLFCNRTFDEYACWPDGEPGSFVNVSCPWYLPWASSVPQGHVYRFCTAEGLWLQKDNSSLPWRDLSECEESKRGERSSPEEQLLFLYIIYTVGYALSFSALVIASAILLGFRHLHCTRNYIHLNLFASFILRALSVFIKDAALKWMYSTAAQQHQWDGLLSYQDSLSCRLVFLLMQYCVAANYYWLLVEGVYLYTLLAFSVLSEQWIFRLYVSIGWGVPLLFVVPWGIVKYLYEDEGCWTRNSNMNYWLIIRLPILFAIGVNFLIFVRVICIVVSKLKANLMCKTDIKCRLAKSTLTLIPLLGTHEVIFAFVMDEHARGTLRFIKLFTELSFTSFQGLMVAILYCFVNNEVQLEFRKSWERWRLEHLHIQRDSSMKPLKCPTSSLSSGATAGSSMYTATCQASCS
Procedure, shortened: (§1)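 Agonist EC50s came from 8-concentration curves over four decades, fitted by non-linear variable-slope regression of CRE-driven luciferase luminescence. Cells were exposed 4 h at 37 °C, in buffer with 0.5% human plasma or in 100% plasma; GIPR was expressed in CHO cells, GLP-1R and NPY2R in HEK cells.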

[2] = molecular target: T2, hGIPR (Homo sapiens, UniProt P48546); test: hGIPR CreLuc reporter gene assay in 0.5% and 100% plasma
T2 construct: expressed in transfected cells; host or cells: CHO cells carrying a CRE-luciferase reporter gene
T2 sequence (P48546 22-466): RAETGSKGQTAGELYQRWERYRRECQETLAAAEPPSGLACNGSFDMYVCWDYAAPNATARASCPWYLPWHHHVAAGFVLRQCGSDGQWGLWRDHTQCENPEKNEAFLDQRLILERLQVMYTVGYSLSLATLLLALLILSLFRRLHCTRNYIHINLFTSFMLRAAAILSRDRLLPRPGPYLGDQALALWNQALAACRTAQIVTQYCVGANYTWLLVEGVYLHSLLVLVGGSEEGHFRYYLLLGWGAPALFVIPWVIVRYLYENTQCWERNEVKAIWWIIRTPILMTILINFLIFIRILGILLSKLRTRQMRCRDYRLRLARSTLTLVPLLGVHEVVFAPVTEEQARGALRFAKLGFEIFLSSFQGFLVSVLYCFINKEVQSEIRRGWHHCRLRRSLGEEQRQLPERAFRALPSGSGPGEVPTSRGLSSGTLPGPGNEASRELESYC
Procedure, shortened: as §1

[3] = molecular target: T3, hNPY2R (Homo sapiens, UniProt P49146); test: hNPY2R CreLuc reporter gene assay in 0.5% and 100% plasma
T3 construct: expressed in transfected cells; host or cells: HEK-293 cells carrying a CRE-luciferase reporter gene
T3 sequence (P49146 1-381): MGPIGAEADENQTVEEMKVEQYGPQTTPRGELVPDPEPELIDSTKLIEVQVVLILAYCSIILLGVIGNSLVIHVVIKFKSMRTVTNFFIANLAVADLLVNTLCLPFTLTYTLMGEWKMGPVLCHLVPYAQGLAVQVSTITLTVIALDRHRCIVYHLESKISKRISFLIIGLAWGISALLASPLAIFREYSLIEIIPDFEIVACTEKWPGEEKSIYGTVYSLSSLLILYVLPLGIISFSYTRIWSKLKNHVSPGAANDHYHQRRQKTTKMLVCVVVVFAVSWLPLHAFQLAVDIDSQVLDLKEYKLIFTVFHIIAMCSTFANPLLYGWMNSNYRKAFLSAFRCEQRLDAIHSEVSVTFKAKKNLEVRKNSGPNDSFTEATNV
Procedure, shortened: as §1

[4] = 0.5% human plasma, read-out: hGLP1R 0.5% hP
[5] = 0.5% human plasma, read-out: hGIPR 0.5% hP
[6] = 100% human plasma, read-out: hGIPR 100% hP
[7] = 0.5% human plasma, read-out: hNPY2R 0.5% hP
[8] = 100% human plasma, read-out: hNPY2R 100% hP
[9] = 100% human plasma, read-out: hGLP1R 100% hP

EC50 [1, 4] [nM] | EC50 [2, 5] [nM] | EC50 [2, 6] [nM] | EC50 [3, 7] [nM] | EC50 [3, 8] [nM] | EC50 [1, 9] [nM] | Substance
0.04 | 0.06 | 0.5 | 30.9 | 87.6 | – | H-Y[Aib]EGTFTSDYSI[Aib]LEKQAQ[Aib]AFVEWLIK([εLys-γGlu-γGlu-γGlu-γGlu-γGlu-γGlu-C20 diacid])GGPSSGASL[Aib]HYYNWLTRQRY-NH2 [Compound 129, Y-Aib-E-G-T-F-T-S-D-Y-S-I-Aib-L-E-K-Q-A-Q-Aib-A-F-V-E-W-L-I-K(1,3)-G-G-P-S-S-G-A-S-L-Aib-H-Y-Y-N-W-L-T-R-Q-R-Y-NH2.C20DA-gGlu-gGlu-gGlu-gGlu-gGlu-gGlu-eLys(1,2)]
0.13 | 0.14 | 1.18 | – | 24.6 | – | H-Y[Aib]EGTFTSDYSI[Aib]LEKQAQ[Aib]AFVEWLIK([εLys-γGlu-γGlu-γGlu-γGlu-γGlu-γGlu-C20 diacid])GGPSSGASVRHYYNWLTRQRY-NH2 [Compound 117, Y-Aib-E-G-T-F-T-S-D-Y-S-I-Aib-L-E-K-Q-A-Q-Aib-A-F-V-E-W-L-I-K(1,3)-GGPSSGASVRHYYNWLTRQRY-NH2.C20DA-gGlu-gGlu-gGlu-gGlu-gGlu-gGlu-eLys(1,2)]
0.08 | 0.1 | 0.62 | 53.4 | – | 1.13 | H-Y[Aib]EGTFTSDYSI[Aib]LEKQAQ[Aib]AFVEWLIK([εLys-γGlu-γGlu-γGlu-γGlu-γGlu-γGlu-C20 diacid])GGPSSGAS[Aib]RHYYNWLTRQR[dY]-NH2 [Compound 74, Y-Aib-E-G-T-F-T-S-D-Y-S-I-Aib-L-E-K-Q-A-Q-Aib-A-F-V-E-W-L-I-K(1,3)-G-G-P-S-S-G-A-S-Aib-R-H-Y-Y-N-W-L-T-R-Q-R-DTyr-NH2.C20DA-gGlu-gGlu-gGlu-gGlu-gGlu-gGlu-eLys(1,2)]
0.07 | 0.09 | 0.7 | > 100 | – | 1.18 | H-Y[Aib]EGTFTSDYSI[Aib]LEKQAQ[Aib]AFVEWLIK([εLys-γGlu-γGlu-γGlu-γGlu-γGlu-γGlu-C20 diacid])GGPSSGAS[Aib]RHYYNWLT[hArg]QR[dY]-NH2 [Compound 26, Y-Aib-E-G-T-F-T-S-D-Y-S-I-Aib-L-E-K-Q-A-Q-Aib-A-F-V-E-W-L-I-K(1,3)-G-G-P-S-S-G-A-S-Aib-R-H-Y-Y-N-W-L-T-hArg-Q-R-DTyr-NH2.C20DA-gGlu-gGlu-gGlu-gGlu-gGlu-gGlu-eLys(1,2)]
0.17 | 0.21 | 1.72 | 16.2 | 53.1 | – | H-Y[Aib]EGTFTSDYSI[Aib]LEKQAQ[Aib]AFVEWLIK([εLys-γGlu-γGlu-γGlu-γGlu-γGlu-γGlu-C20 diacid])GGPSSGATLRHYYNWLTRQRY-NH2 [Compound 91, Y-Aib-E-G-T-F-T-S-D-Y-S-I-Aib-L-E-K-Q-A-Q-Aib-A-F-V-E-W-L-I-K(1,3)-GGPSSGATLRHYYNWLTRQRY-NH2.C20DA-gGlu-gGlu-gGlu-gGlu-gGlu-gGlu-eLys(1,2)]
0.12 | 0.07 | 1.25 | 12.5 | 36.8 | – | H-Y[Aib]EGTFTSDYSI[Aib]LEKQAQ[Aib]AFVEWLIK([εLys-γGlu-γGlu-γGlu-γGlu-γGlu-γGlu-C20 diacid])GGPSSGES[Aib]RHYYNWLTRQRY-NH2 [Compound 49, Y-Aib-E-G-T-F-T-S-D-Y-S-I-Aib-L-E-K-Q-A-Q-Aib-A-F-V-E-W-L-I-K(1,3)-G-G-P-S-S-G-E-S-Aib-R-H-Y-Y-N-W-L-T-R-Q-R-Y-NH2.C20DA-gGlu-gGlu-gGlu-gGlu-gGlu-gGlu-eLys(1,2)]
0.1 | 0.35 | 1.56 | > 99.9 | 563 | 1.39 | H-Y[Aib]EGTFTSDYSI[Aib]LEKQAQ[Aib]AFVEWLIK([εLys-γGlu-γGlu-γGlu-γGlu-γGlu-γGlu-C20 diacid])GGPSSGIELRHFLNHLTRQRY-NH2 [Compound 2, Y-Aib-E-G-T-F-T-S-D-Y-S-I-Aib-L-E-K-Q-A-Q-Aib-A-F-V-E-W-L-I-K(1,3)-GGPSSGIELRHFLNHLTRQRY-NH2.C20DA-gGlu-gGlu-gGlu-gGlu-gGlu-gGlu-eLys(1,2)]
0.13 | 0.27 | – | 16.7 | 58.5 | – | H-Y[Aib]EGTFTSDYSI[Aib]LEKQAQ[Aib]AFVEWLIK([εLys-γGlu-γGlu-γGlu-γGlu-γGlu-γGlu-C20 diacid])GGPSSGLSLRHYYNWLTRQRY-NH2 [Compound 107, Y-Aib-E-G-T-F-T-S-D-Y-S-I-Aib-L-E-K-Q-A-Q-Aib-A-F-V-E-W-L-I-K(1,3)-GGPSSGLSLRHYYNWLTRQRY-NH2.C20DA-gGlu-gGlu-gGlu-gGlu-gGlu-gGlu-eLys(1,2)]
0.07 | 0.05 | 1.14 | – | 24.5 | 2.12 | H-Y[Aib]EGTFTSDYSI[Aib]LEKQAQ[Aib]AFVEWLIK([εLys-γGlu-γGlu-γGlu-γGlu-γGlu-γGlu-C20 diacid])GGPSSGQS[Aib]RHYYNWLTRQRY-NH2 [Compound 44, Y-Aib-E-G-T-F-T-S-D-Y-S-I-Aib-L-E-K-Q-A-Q-Aib-A-F-V-E-W-L-I-K(1,3)-G-G-P-S-S-G-Q-S-Aib-R-H-Y-Y-N-W-L-T-R-Q-R-Y-NH2.C20DA-gGlu-gGlu-gGlu-gGlu-gGlu-gGlu-eLys(1,2)]
0.14 | 0.19 | 1.07 | – | 44.8 | 2.12 | H-Y[Aib]EGTFTSDYSI[Aib]LEKQAQ[Aib]AFVEWLIK([εLys-γGlu-γGlu-γGlu-γGlu-γGlu-γGlu-C20 diacid])GGPSSGVSLRHYYNWLTRQRY-NH2 [Compound 96, Y-Aib-E-G-T-F-T-S-D-Y-S-I-Aib-L-E-K-Q-A-Q-Aib-A-F-V-E-W-L-I-K(1,3)-GGPSSGVSLRHYYNWLTRQRY-NH2.C20DA-gGlu-gGlu-gGlu-gGlu-gGlu-gGlu-eLys(1,2)]
0.06 | – | 0.7 | – | 17.8 | – | H-Y[Aib]EGTFTSDYSI[Aib]LEKQAQ[Aib]AFVEWLIK([εLys-γGlu-γGlu-γGlu-γGlu-γGlu-γGlu-C20 diacid])GGPSSGVS[Aib]RHYYNWLTRQRY-NH2 [Compound 38, Y-Aib-E-G-T-F-T-S-D-Y-S-I-Aib-L-E-K-Q-A-Q-Aib-A-F-V-E-W-L-I-K(1,3)-G-G-P-S-S-G-V-S-Aib-R-H-Y-Y-N-W-L-T-R-Q-R-Y-NH2.C20DA-gGlu-gGlu-gGlu-gGlu-gGlu-gGlu-eLys(1,2)]
0.13 | 0.13 | 0.75 | 20.6 | – | – | H-Y[Aib]EGTFTSDYSI[Aib]LEKQAQ[Aib]AFVEWLIK([εLys-γGlu-γGlu-γGlu-γGlu-γGlu-γGlu-C20 diacid])GGPSSPASLRHYYNWLTRQRY-NH2 [Compound 95, Y-Aib-E-G-T-F-T-S-D-Y-S-I-Aib-L-E-K-Q-A-Q-Aib-A-F-V-E-W-L-I-K(1,3)-GGPSSPASLRHYYNWLTRQRY-NH2.C20DA-gGlu-gGlu-gGlu-gGlu-gGlu-gGlu-eLys(1,2)]
0.19 | 0.11 | 1.61 | – | 107 | 4.76 | H-Y[Aib]EGTFTSDYSI[Aib]LEKQAQ[Aib]AFVEWLIK([εLys-γGlu-γGlu-γGlu-γGlu-γGlu-γGlu-C20 diacid])GGPSSPESLRHYYNWLTRQRY-NH2 [Compound 73, Y-Aib-E-G-T-F-T-S-D-Y-S-I-Aib-L-E-K-Q-A-Q-Aib-A-F-V-E-W-L-I-K(1,3)-GGPSSPESLRHYYNWLTRQRY-NH2.C20DA-gGlu-gGlu-gGlu-gGlu-gGlu-gGlu-eLys(1,2)]
0.06 | 0.07 | 0.62 | 10.2 | 34.6 | – | H-Y[Aib]EGTFTSDYSI[Aib]LEKQAQ[Aib]AFVEWLIK([εLys-γGlu-γGlu-γGlu-γGlu-γGlu-γGlu-C20 diacid])GGPSSPQSLRHYYNWLTRQRY-NH2 [Compound 41, Y-Aib-E-G-T-F-T-S-D-Y-S-I-Aib-L-E-K-Q-A-Q-Aib-A-F-V-E-W-L-I-K(1,3)-GGPSSPQSLRHYYNWLTRQRY-NH2.C20DA-gGlu-gGlu-gGlu-gGlu-gGlu-gGlu-eLys(1,2)]

— patent US20240247080A1, “GLP1/GIP/NPY2 RECEPTOR TRIPLE AGONISTS” (Boehringer Ingelheim International GmbH, priority 2022, published 2024)
